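Values below derive from 48-hour exposures of cells grown in 96-well plates, with endpoints linearly interpolated between the two concentrations bracketing the appropriate inhibition level. Here, GI50 denotes the concentration required for 50% inhibition of growth. TGI denotes the concentration required for complete inhibition of growth.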
Key:
Experiment in all cases: NCI-60 cell line screen, 48 h
786-0 renal = system: 786-0 renal
A498 renal = system: A498 renal
A549 NSCLC = system: A549 NSCLC
ACHN renal = system: ACHN renal
BT-549 breast = system: BT-549 breast
CCRF-CEM leukemia = system: CCRF-CEM leukemia
COLO 205 colon = system: COLO 205 colon
DU-145 prostate = system: DU-145 prostate
EKVX NSCLC = system: EKVX NSCLC
HCC-2998 colon = system: HCC-2998 colon
HCT-116 colon = system: HCT-116 colon
HCT-15 colon = system: HCT-15 colon
HL-60(TB) leukemia = system: HL-60(TB) leukemia
HOP-62 NSCLC = system: HOP-62 NSCLC
HOP-92 NSCLC = system: HOP-92 NSCLC
HS 578T breast = system: HS 578T breast
HT29 colon = system: HT29 colon
IGROV1 ovarian = system: IGROV1 ovarian
K-562 leukemia = system: K-562 leukemia
KM12 colon = system: KM12 colon
LOX IMVI melanoma = system: LOX IMVI melanoma
M14 melanoma = system: M14 melanoma
MALME-3M melanoma = system: MALME-3M melanoma
MCF7 breast = system: MCF7 breast
MDA-MB-231 breast = system: MDA-MB-231 breast
MDA-MB-435 = system: MDA-MB-435
MOLT-4 leukemia = system: MOLT-4 leukemia
NCI-H226 lung = system: NCI-H226 lung
NCI-H23 lung = system: NCI-H23 lung
NCI-H460 lung = system: NCI-H460 lung
NCI-H522 lung = system: NCI-H522 lung
NCI/ADR-RES ovarian = system: NCI/ADR-RES ovarian
OVCAR-3 ovarian = system: OVCAR-3 ovarian
OVCAR-4 ovarian = system: OVCAR-4 ovarian
OVCAR-5 ovarian = system: OVCAR-5 ovarian
OVCAR-8 ovarian = system: OVCAR-8 ovarian
PC-3 prostate = system: PC-3 prostate
RPMI-8226 leukemia = system: RPMI-8226 leukemia
RXF 393 renal = system: RXF 393 renal
SF-268 CNS = system: SF-268 CNS
SF-295 CNS = system: SF-295 CNS
SF-539 CNS = system: SF-539 CNS
SK-MEL-2 melanoma = system: SK-MEL-2 melanoma
SK-MEL-28 melanoma = system: SK-MEL-28 melanoma
SK-MEL-5 melanoma = system: SK-MEL-5 melanoma
SK-OV-3 ovarian = system: SK-OV-3 ovarian
SN12C renal = system: SN12C renal
SNB-19 CNS = system: SNB-19 CNS
SNB-75 CNS = system: SNB-75 CNS
SR leukemia = system: SR leukemia
SW-620 colon = system: SW-620 colon
T-47D breast = system: T-47D breast
TK-10 renal = system: TK-10 renal
U251 CNS = system: U251 CNS
UACC-257 melanoma = system: UACC-257 melanoma
UACC-62 melanoma = system: UACC-62 melanoma
UO-31 renal = system: UO-31 renal

SMILES: C=C1C(=O)O[C@H]2[C@H]1CC/C(COC(=O)c1cc3ccccc3o1)=C\CC[C@@]1(C)O[C@@H]21
- GI50 (786-0 renal): 1810 nM
- TGI (786-0 renal): 3450 nM
- GI50 (A498 renal): 12900 nM
- TGI (A498 renal): 26000 nM
- GI50 (A549 NSCLC): 2910 nM
- TGI (A549 NSCLC): 12000 nM
- GI50 (ACHN renal): 1440 nM
- TGI (ACHN renal): 2760 nM
- GI50 (BT-549 breast): 1480 nM
- TGI (BT-549 breast): 3290 nM
- GI50 (CCRF-CEM leukemia): 335 nM
- TGI (CCRF-CEM leukemia): 4030 nM
- GI50 (COLO 205 colon): 1550 nM
- TGI (COLO 205 colon): 3150 nM
- GI50 (DU-145 prostate): 1180 nM
- TGI (DU-145 prostate): 2450 nM
- GI50 (EKVX NSCLC): 2020 nM
- TGI (EKVX NSCLC): 6120 nM
- GI50 (HCC-2998 colon): 2470 nM
- TGI (HCC-2998 colon): 5840 nM
- GI50 (HCT-116 colon): 320 nM
- TGI (HCT-116 colon): 1300 nM
- GI50 (HCT-15 colon): 1070 nM
- TGI (HCT-15 colon): 2860 nM
- GI50 (HL-60(TB) leukemia): 1220 nM
- TGI (HL-60(TB) leukemia): 3680 nM
- GI50 (HOP-62 NSCLC): 2480 nM
- TGI (HOP-62 NSCLC): 7070 nM
- GI50 (HOP-92 NSCLC): 1440 nM
- TGI (HOP-92 NSCLC): 3100 nM
- GI50 (HS 578T breast): 2910 nM
- TGI (HS 578T breast): 10900 nM
- GI50 (HT29 colon): 829 nM
- TGI (HT29 colon): 2210 nM
- GI50 (IGROV1 ovarian): 1390 nM
- TGI (IGROV1 ovarian): 3230 nM
- GI50 (K-562 leukemia): 1150 nM
- TGI (K-562 leukemia): 7430 nM
- GI50 (KM12 colon): 2020 nM
- TGI (KM12 colon): 4610 nM
- GI50 (LOX IMVI melanoma): 1420 nM
- TGI (LOX IMVI melanoma): 2810 nM
- GI50 (M14 melanoma): 1430 nM
- TGI (M14 melanoma): 3130 nM
- GI50 (MALME-3M melanoma): 1660 nM
- TGI (MALME-3M melanoma): 3270 nM
- GI50 (MCF7 breast): 395 nM
- TGI (MCF7 breast): 2180 nM
- GI50 (MDA-MB-231 breast): 1640 nM
- TGI (MDA-MB-231 breast): 3550 nM
- GI50 (MDA-MB-435): 1430 nM
- TGI (MDA-MB-435): 2900 nM
- GI50 (MOLT-4 leukemia): 1770 nM
- TGI (MOLT-4 leukemia): 6060 nM
- GI50 (NCI-H226 lung): 1740 nM
- TGI (NCI-H226 lung): 3600 nM
- GI50 (NCI-H23 lung): 1980 nM
- TGI (NCI-H23 lung): 4750 nM
- GI50 (NCI-H460 lung): 2000 nM
- TGI (NCI-H460 lung): 4510 nM
- GI50 (NCI-H522 lung): 680 nM
- TGI (NCI-H522 lung): 2390 nM
- GI50 (NCI/ADR-RES ovarian): 2590 nM
- TGI (NCI/ADR-RES ovarian): 10100 nM
- GI50 (OVCAR-3 ovarian): 485 nM
- TGI (OVCAR-3 ovarian): 1720 nM
- GI50 (OVCAR-4 ovarian): 1560 nM
- TGI (OVCAR-4 ovarian): 3980 nM
- GI50 (OVCAR-5 ovarian): 1880 nM
- TGI (OVCAR-5 ovarian): 3750 nM
- GI50 (OVCAR-8 ovarian): 2430 nM
- TGI (OVCAR-8 ovarian): 7630 nM
- GI50 (PC-3 prostate): 1760 nM
- TGI (PC-3 prostate): 3720 nM
- GI50 (RPMI-8226 leukemia): 715 nM
- TGI (RPMI-8226 leukemia): 3440 nM
- GI50 (RXF 393 renal): 1430 nM
- TGI (RXF 393 renal): 2870 nM
- GI50 (SF-268 CNS): 1560 nM
- TGI (SF-268 CNS): 3270 nM
- GI50 (SF-295 CNS): 5900 nM
- TGI (SF-295 CNS): 19100 nM
- GI50 (SF-539 CNS): 1450 nM
- TGI (SF-539 CNS): 2840 nM
- GI50 (SK-MEL-2 melanoma): 1770 nM
- TGI (SK-MEL-2 melanoma): 3810 nM
- GI50 (SK-MEL-28 melanoma): 1750 nM
- TGI (SK-MEL-28 melanoma): 3590 nM
- GI50 (SK-MEL-5 melanoma): 1520 nM
- TGI (SK-MEL-5 melanoma): 2890 nM
- GI50 (SK-OV-3 ovarian): 16700 nM
- TGI (SK-OV-3 ovarian): 32700 nM
- GI50 (SN12C renal): 1780 nM
- TGI (SN12C renal): 4120 nM
- GI50 (SNB-19 CNS): 3160 nM
- TGI (SNB-19 CNS): 13300 nM
- GI50 (SNB-75 CNS): 1340 nM
- TGI (SNB-75 CNS): 3180 nM
- GI50 (SR leukemia): 1150 nM
- TGI (SR leukemia): 5330 nM
- GI50 (SW-620 colon): 662 nM
- TGI (SW-620 colon): 2490 nM
- GI50 (T-47D breast): 1350 nM
- TGI (T-47D breast): 3320 nM
- GI50 (TK-10 renal): 3010 nM
- TGI (TK-10 renal): 9450 nM
- GI50 (U251 CNS): 1630 nM
- TGI (U251 CNS): 3160 nM
- GI50 (UACC-257 melanoma): 1520 nM
- TGI (UACC-257 melanoma): 3040 nM
- GI50 (UACC-62 melanoma): 1680 nM
- TGI (UACC-62 melanoma): 3230 nM
- GI50 (UO-31 renal): 1460 nM
- TGI (UO-31 renal): 2790 nM

Reference: PubChem BioAssay (NCI)
